According to the supplement of paper PMC11061612:

What was measured:
Carboplatin = compound: C1CC(C1)(C(=O)[O-])C(=O)[O-].N.N.[Pt+2] [Carboplatin]; details: max 10 µM
Outline: (§1)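 In 1536-well plates, cancer cell lines in 7.5 μl DMEM/F12 or RPMI with 10% FBS spent 24 hours at 37°C and 5% CO2 and were then dosed for 72 hours with final DMSO typically 0.2%. Viability was read by CellTiter-Glo 2.0 luminescence and scaled between blank-well and DMSO-well means. The single-agent IC50 was fitted from dose responses using a logistic curve in a non-linear mixed effects model, and that logistic curve had two parameters.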

AZD5363 = compound: C1CN(CCC1(C(=O)N[C@@H](CCO)C2=CC=C(C=C2)Cl)N)C3=NC=NC4=C3C=CN4 [AZD5363]; details: max 10 µM
Outline: as §1

AZD1775 = compound: C=CCn1c(=O)c2cnc(Nc3ccc(N4CCN(C)CC4)cc3)nc2n1-c1cccc(C(C)(C)O)n1 [AZD1775]; details: max 3 µM
Outline: as §1

Trametinib = compound: CC(=O)Nc1cccc(-n2c(=O)n(C3CC3)c(=O)c3c(Nc4ccc(I)cc4F)n(C)c(=O)c(C)c32)c1 [Trametinib]; details: max 1 µM
Outline: as §1

Paclitaxel = compound: CC(=O)O[C@H]1C(=O)[C@@]2(C)[C@H]([C@H](OC(=O)c3ccccc3)[C@]3(O)C[C@H](OC(=O)[C@H](O)[C@@H](NC(=O)c4ccccc4)c4ccccc4)C(C)=C1C3(C)C)[C@]1(OC(C)=O)CO[C@@H]1C[C@@H]2O [Paclitaxel]; details: max 3 µM
Outline: as §1

Palbociclib = compound: CC(=O)c1c(C)c2cnc(Nc3ccc(N4CCNCC4)cn3)nc2n(C2CCCC2)c1=O [Palbociclib]; details: max 10 µM
Outline: as §1

AZD1390 = compound: CC(C)n1c(=O)n(C)c2cnc3cc(F)c(-c4ccc(OCCCN5CCCCC5)nc4)cc3c21 [AZD1390]; details: max 0.3 µM
Outline: as §1

Venetoclax = compound: CC1(C)CCC(CN2CCN(c3ccc(C(=O)NS(=O)(=O)c4ccc(NCC5CCOCC5)c([N+](=O)[O-])c4)c(Oc4cnc5[nH]ccc5c4)c3)CC2)=C(c2ccc(Cl)cc2)C1 [Venetoclax]; details: max 1 µM
Outline: as §1

Dasatinib = compound: CC1=C(C(=CC=C1)Cl)NC(=O)C2=CN=C(S2)NC3=CC(=NC(=N3)C)N4CCN(CC4)CCO [Dasatinib]; details: max 2 µM
Outline: as §1

SG3199 = compound: CC1=CN2[C@@H](C1)C=NC3=CC(=C(C=C3C2=O)OC)OCCCCCOC4=C(C=C5C(=C4)N=C[C@@H]6CC(=CN6C5=O)C)OC [SG3199]; details: max 0.001 µM
Outline: as §1

AZD2811 = compound: CCN(CCO)CCCOc1ccc2c(Nc3cc(CC(=O)Nc4cccc(F)c4)[nH]n3)ncnc2c1 [AZD2811]; details: max 1 µM
Outline: as §1

SN-38 = compound: CCc1c2c(nc3ccc(O)cc13)-c1cc3c(c(=O)n1C2)COC(=O)[C@]3(O)CC [SN-38]; details: max 0.3 µM
Outline: as §1

AZD0156 = compound: CN(C)CCCOc1ccc(-c2ccc3ncc4c(c3c2)n(C2CCOCC2)c(=O)n4C)cn1 [AZD0156]; details: max 3 µM
Outline: as §1

AZD4320 = compound: CN(CC[C@H](CSC1=CC=CC=C1)NC2=C(C=C(C=C2)S(=O)(=O)NC(=O)C3=CC=C(C=C3)N4CCC(CC4)[C@H](C5=CC=CC=C5C6=CC=C(C=C6)Cl)O)S(=O)(=O)C(F)(F)F)CCO [AZD4320]; details: max 1 µM
Outline: as §1

Alisertib = compound: COc1cc(Nc2ncc3c(n2)-c2ccc(Cl)cc2C(c2c(F)cccc2OC)=NC3)ccc1C(=O)O [Alisertib]; details: max 10 µM
Outline: as §1

Etoposide = compound: COc1cc([C@@H]2c3cc4c(cc3[C@@H](O[C@@H]3O[C@@H]5CO[C@@H](C)O[C@H]5[C@H](O)[C@H]3O)[C@H]3COC(=O)[C@H]23)OCO4)cc(OC)c1O [Etoposide]; details: max 10 µM
Outline: as §1

Gefitinib = compound: COc1cc2ncnc(Nc3ccc(F)c(Cl)c3)c2cc1OCCCN1CCOCC1 [Gefitinib]; details: max 10 µM
Outline: as §1

Prexasertib = compound: COc1cccc(OCCCN)c1-c1cc(Nc2cnc(C#N)cn2)n[nH]1 [Prexasertib]; details: max 1 µM
Outline: as §1

Doxorubicin = compound: COc1cccc2c1C(=O)c1c(O)c3c(c(O)c1C2=O)C[C@@](O)(C(=O)CO)C[C@@H]3O[C@H]1C[C@H](N)[C@H](O)[C@H](C)O1 [Doxorubicin]; details: max 1 µM
Outline: as §1

AZD5153 = compound: COc1nnc2ccc(N3CCC(c4ccc(OCCN5CCN(C)C(=O)[C@H]5C)cc4)CC3)nn12 [AZD5153]; details: max 1 µM
Outline: as §1

Lapatinib = compound: CS(=O)(=O)CCNCc1ccc(-c2ccc3ncnc(Nc4ccc(OCc5cccc(F)c5)c(Cl)c4)c3c2)o1 [Lapatinib]; details: max 10 µM
Outline: as §1

AZD8186 = compound: C[C@@H](Nc1cc(F)cc(F)c1)c1cc(C(=O)N(C)C)cc2c(=O)cc(N3CCOCC3)oc12 [AZD8186]; details: max 10 µM
Outline: as §1

Crizotinib = compound: C[C@@H](Oc1cc(-c2cnn(C3CCNCC3)c2)cnc1N)c1c(Cl)ccc(F)c1Cl [Crizotinib]; details: max 10 µM
Outline: as §1

Savolitinib = compound: C[C@@H](c1ccc2nccn2c1)n1nnc2ncc(-c3cnn(C)c3)nc21 [Savolitinib]; details: max 1 µM
Outline: as §1

AZD6738 = compound: C[C@@H]1COCCN1C2=NC(=NC(=C2)C3(CC3)[S@](=N)(=O)C)C4=C5C=CNC5=NC=C4 [AZD6738]; details: max 10 µM
Outline: as §1

AZD5991 = compound: Cc1c2c(nn1C)CSCc1cc(n(C)n1)CSc1cc(c3ccccc3c1)OCCCc1c(C(=O)O)n(C)c3c-2c(Cl)ccc13 [AZD5991]; details: max 1 µM
Outline: as §1

AZD7648 = compound: Cc1cc2ncnn2cc1Nc1ncc2c(n1)n(C1CCOCC1)c(=O)n2C [AZD7648]; details: max 10 µM
Outline: as §1

Taselisib = compound: Cc1nc(-c2cn3c(n2)-c2ccc(-c4cnn(C(C)(C)C(N)=O)c4)cc2OCC3)n(C(C)C)n1 [Taselisib]; details: max 10 µM
Outline: as §1

Selumetinib = compound: Cn1cnc2c(F)c(Nc3ccc(Br)cc3Cl)c(C(=O)NOCCO)cc21 [Selumetinib]; details: max 10 µM
Outline: as §1

SRA737 = compound: N#Cc1cnc(Nc2cc(NC[C@H]3CNCCO3)c(C(F)(F)F)cn2)cn1 [SRA737]; details: max 10 µM
Outline: as §1

MK-2206 = compound: NC1(c2ccc(-c3nc4ccn5c(=O)[nH]nc5c4cc3-c3ccccc3)cc2)CCC1 [MK-2206]; details: max 10 µM
Outline: as §1

Gemcitabine = compound: Nc1ccn([C@@H]2O[C@H](CO)[C@@H](O)C2(F)F)c(=O)n1 [Gemcitabine]; details: max 0.3 µM
Outline: as §1

[1] = compound: O=C(Nc1ccc2[nH]nc(-c3ccncc3)c2c1)[C@@H]1CCN(CC(=O)N2CCN(c3ccc(-c4ncccn4)cc3)CC2)C1; details: max 5 µM
Outline: as §1

Olaparib = compound: O=C(c1cc(Cc2n[nH]c(=O)c3ccccc23)ccc1F)N1CCN(C(=O)C2CC2)CC1 [Olaparib]; details: max 10 µM
Outline: as §1

5-Fluorouracil = compound: O=c1[nH]cc(F)c(=O)[nH]1 [5-Fluorouracil]; details: max 20 µM
Outline: as §1

Cell Line	IC50, cell viability 72 h (Carboplatin)	IC50, cell viability 72 h (AZD5363)	IC50, cell viability 72 h (AZD1775)	IC50, cell viability 72 h (Trametinib)	IC50, cell viability 72 h (Paclitaxel)	IC50, cell viability 72 h (Palbociclib)	IC50, cell viability 72 h (AZD1390)	IC50, cell viability 72 h (Venetoclax)	IC50, cell viability 72 h (Dasatinib)	IC50, cell viability 72 h (SG3199)	IC50, cell viability 72 h (AZD2811)	IC50, cell viability 72 h (SN-38)	IC50, cell viability 72 h (AZD0156)	IC50, cell viability 72 h (AZD4320)	IC50, cell viability 72 h (Alisertib)	IC50, cell viability 72 h (Etoposide)	IC50, cell viability 72 h (Gefitinib)	IC50, cell viability 72 h (Prexasertib)	IC50, cell viability 72 h (Doxorubicin)	IC50, cell viability 72 h (AZD5153)	IC50, cell viability 72 h (Lapatinib)	IC50, cell viability 72 h (AZD8186)	IC50, cell viability 72 h (Crizotinib)	IC50, cell viability 72 h (Savolitinib)	IC50, cell viability 72 h (AZD6738)	IC50, cell viability 72 h (AZD5991)	IC50, cell viability 72 h (AZD7648)	IC50, cell viability 72 h (Taselisib)	IC50, cell viability 72 h (Selumetinib)	IC50, cell viability 72 h (SRA737)	IC50, cell viability 72 h (MK-2206)	IC50, cell viability 72 h (Gemcitabine)	IC50, cell viability 72 h [1]	IC50, cell viability 72 h (Olaparib)	IC50, cell viability 72 h (5-Fluorouracil)
ME-1 (Acute Myeloid Leukemia)	> 10 µM	> 10 µM	1.26 µM	> 1 µM	> 3 µM	> 10 µM	> 0.3 µM	0.00788 µM	> 2 µM	> 0.001 µM	> 1 µM	> 0.3 µM	> 3 µM	0.0227 µM	> 10 µM	> 10 µM	> 10 µM	0.315 µM	> 1 µM	> 1 µM	> 10 µM	> 10 µM	> 10 µM	> 1 µM	> 10 µM	0.694 µM	> 10 µM	> 10 µM	> 10 µM	> 10 µM	> 10 µM	> 0.3 µM	> 5 µM	> 10 µM	> 20 µM
NB10 (Neuroblastoma)	> 10 µM	> 10 µM	0.892 µM	0.328 µM	0.273 µM	> 10 µM	> 0.3 µM	> 1 µM	> 2 µM	> 0.001 µM	> 1 µM	0.00651 µM	> 3 µM	> 1 µM	0.0566 µM	1.95 µM	> 10 µM	0.092 µM	0.528 µM	0.664 µM	> 10 µM	> 10 µM	3.74 µM	> 1 µM	5.83 µM	> 1 µM	> 10 µM	6.73 µM	> 10 µM	> 10 µM	> 10 µM	0.0871 µM	3.88 µM	> 10 µM	18.4 µM
NCI-H82 (Small Cell Lung Carcinoma)	> 10 µM	1.36 µM	0.622 µM	> 1 µM	0.00546 µM	> 10 µM	> 0.3 µM	> 1 µM	> 2 µM	> 0.001 µM	0.844 µM	0.0227 µM	> 3 µM	> 1 µM	1.09 µM	2.45 µM	> 10 µM	0.0182 µM	0.254 µM	0.931 µM	> 10 µM	> 10 µM	3.57 µM	> 1 µM	2.11 µM	0.227 µM	> 10 µM	> 10 µM	> 10 µM	5.8 µM	2.69 µM	0.0328 µM	> 5 µM	> 10 µM	11.8 µM
NCI-H2085 (Non-Small Cell Lung Carcinoma)	> 10 µM	> 10 µM	3 µM	> 1 µM	0.382 µM	> 10 µM	> 0.3 µM	> 1 µM	0.152 µM	> 0.001 µM	> 1 µM	> 0.3 µM	> 3 µM	> 1 µM	8.07 µM	> 10 µM	> 10 µM	0.0673 µM	> 1 µM	> 1 µM	> 10 µM	3.58 µM	> 10 µM	> 1 µM	> 10 µM	> 1 µM	> 10 µM	> 10 µM	> 10 µM	> 10 µM	> 10 µM	> 0.3 µM	> 5 µM	> 10 µM	> 20 µM
RO82-W-1 (Thyroid Gland Carcinoma)	> 10 µM	> 10 µM	> 3 µM	> 1 µM	> 3 µM	> 10 µM	> 0.3 µM	> 1 µM	> 2 µM	> 0.001 µM	> 1 µM	> 0.3 µM	> 3 µM	> 1 µM	> 10 µM	> 10 µM	> 10 µM	> 1 µM	> 1 µM	> 1 µM	> 10 µM	> 10 µM	> 10 µM	> 1 µM	> 10 µM	> 1 µM	> 10 µM	> 10 µM	> 10 µM	> 10 µM	> 10 µM	> 0.3 µM	> 5 µM	> 10 µM	> 20 µM
